{"source": "patent US8779004B2", "about": "“Stable emulsion formulations” (Amgen, Inc., priority 2006, dated 2014)", "assay_type_in_all_cases": "physicochemical", "key": {"[1]": {"assay": "pH and particle size of crude cinacalcet emulsions with different oils and phospholipids", "design": "unit not given here", "conditions": "emulsion; STG 20%; 1% Purified Soy Lecithin; after a single autoclaving cycle"}, "[2]": {"assay": "Zeta-potential vs pH of cinacalcet emulsions containing sodium oleate", "conditions": "cinacalcet emulsion; for pH at which charge is zero: from linear regression line; for zeta-potential: in mV (unit assumed)", "description": "Preparation of Each Emulsion: the Emulsion were Prepared Using Substantially the same method as discussed above in Example 2 under “Laboratory scale preparation.” Briefly, the aqueous phase was prepared by adding appropriate amounts of glycerin and water to an appropriate container. The glycerin and water were mixed well and maintained at elevated temperatures (60-70° C.) by immersing the container in a water batch.\nThe oil phase was prepared by adding appropriate oil and lecithin. The container was tared and the cinacalcet free base was added. Appropriate quantity of sodium oleate (between 0-1%) was added to this oil phase mixture. The oil/lecithin/cinacalcet mixture was mixed at an elevated temperature using sonicater probes to disperse/dissolve the lecithin, the Cinacalcet free base and the sodium oleate.\nThe hot oil phase was transferred to the aqueous phase at elevated temperatures and homogenized to obtain coarse emulsion. Fine emulsion was obtained using a microfluidizer.\nCharge Measurement: Zeta-potential as a function of pH was determined using a Malvern Zetasizer Nano Series Model ZEN 3600 laser-scattering particle electrophoretic analyzer that measures the electrophoretic mobility and zeta potential distribution. Samples were prepared for the zeta potential titration by diluting each emulsion approximately 2500-fold in water. The pH of this mixture was noted after dilution, and then adjusted to a pH 9 using sodium hydroxide. The pH was then titrated down to pH 6 in 0.3 or 0.5 unit steps. Zeta potential measurements were taken at every step. The zeta-potential of each emulsion was plotted as a function of pH and fit to a linear regression line."}, "[3]": {"assay": "Zeta potential titration of emulsions (droplet charge vs pH)", "conditions": "cinacalcet/1% EYP/10% SBO emulsion", "description": "Panel A, titration results of 1% EYP/10% SBO in 1 mM dibasic phosphate. Panel B, titration results of cinacalcet/1% EYP/10% SBO in 1 mM dibasic phosphate. Other components of the emulsions include 10% soybean oil, 1% egg lecithin, 2.25% glycerin and water. Panel C, titration results for Compound A. Emulsion composition: SBO 10%, Lecithin 2% at pH 7. Concentration of Compound A was 5 mg/mL for formulation #1 and 1 mg/mL for formulation #2.\nThe zeta potential measurements were made on a Malvern Zetasizer 4 laser-scattering particle electrophoretic analyzer that measures the electrophoretic mobility and zeta potential distribution. Samples were prepared for the zeta potential titration by diluting the emulsion approximately 2500 fold in 1 mM dibasic phosphate pH 9 and titrating the solution with 100 mM phosphoric acid in 0.5 pH unit increments. […] Theoretically, the emulsions are stabilized by this charge, which prevents the droplets from coalescing. […] In contrast, the cinacalcet emulsions achieve charge neutrality in the range of pH 7-7.5."}, "[4]": {"assay": "Solubility of calcimimetics in oil phases (RP-HPLC)", "conditions": "oil or lipid, thermodynamic from solid", "description": "The solubility measurements of the compounds were prepared by the addition of 1 g of drug substance to two milliliters of oil into a Wheaton 5 mL vial. The headspace was sparged with nitrogen, and enclosed with a West 4405/50 gray Teflon coated stopper and manually sealed by an aluminum overseal. The preparations were repeated again with the oils containing either purified egg or soy lecithin. All labeled vials were shaken at room temperature for eighteen hours on a platform shaker. After eighteen hours, the samples were diluted in mobile phase, and analyzed by the RP-HPLC method. Table 2 summarizes solubility results (expressed in mg/mL) of cinacalcet in various oil phases."}}, "note": "Marks after values point to notes of the source that are not given here.", "data": [{"compound": "C[C@@H](NCCCc1cccc(C(F)(F)F)c1)c1cccc2ccccc12", "note": "[Cinacalcet, N-(1-(R)-(1-naphthyl)ethyl]-3-[3-(trifluoromethyl)phenyl]-1-aminopropane]", "values": [{"measurement": "D(4, 3)", "setting": "[1]", "value": "0.94^a"}, {"measurement": "pH at which charge is zero", "setting": "[2]; 0% Na Oleate", "value": 8.02}, {"measurement": "pH at which charge is zero", "setting": "[2]; 0.25% Na Oleate", "value": 7.87}, {"measurement": "pH at which charge is zero", "setting": "[2]; 0.5% Na Oleate", "value": 7.81}, {"measurement": "pH at which charge is zero", "setting": "[2]; 1% Na Oleate", "value": 7.54}, {"measurement": "zeta-potential", "setting": "[2]; pH 6.5, 0% Na Oleate", "value": 32.8}, {"measurement": "zeta-potential", "setting": "[2]; pH 6.5, 0.25% Na Oleate", "value": 36}, {"measurement": "zeta-potential", "setting": "[2]; pH 6.5, 0.5% Na Oleate", "value": 37.4}, {"measurement": "zeta-potential", "setting": "[2]; pH 6.5, 1% Na Oleate", "value": 24.5}, {"measurement": "zeta-potential", "setting": "[2]; pH 7.0, 0% Na Oleate", "value": 17.8}, {"measurement": "zeta-potential", "setting": "[2]; pH 7.0, 0.25% Na Oleate", "value": 28.1}, {"measurement": "zeta-potential", "setting": "[2]; pH 7.0, 0.5% Na Oleate", "value": 27.8}, {"measurement": "zeta-potential", "setting": "[2]; pH 7.0, 1% Na Oleate", "value": 23.8}, {"measurement": "zeta-potential", "setting": "[2]; pH 7.5, 0% Na Oleate", "value": 15.3}, {"measurement": "zeta-potential", "setting": "[2]; pH 7.5, 0.25% Na Oleate", "value": 7.24}, {"measurement": "zeta-potential", "setting": "[2]; pH 7.5, 0.5% Na Oleate", "value": 16.2}, {"measurement": "zeta-potential", "setting": "[2]; pH 7.5, 1% Na Oleate", "value": 4.87}, {"measurement": "zeta-potential", "setting": "[2]; pH 8.0, 0% Na Oleate", "value": 15}, {"measurement": "zeta-potential", "setting": "[2]; pH 8.0, 0.25% Na Oleate", "value": 2.83}, {"measurement": "zeta-potential", "setting": "[2]; pH 8.0, 0.5% Na Oleate", "value": 0.242}, {"measurement": "zeta-potential", "setting": "[2]; pH 8.0, 1% Na Oleate", "value": "−10.7"}, {"measurement": "zeta-potential", "setting": "[2]; pH 8.5, 0% Na Oleate", "value": "−16.7"}, {"measurement": "zeta-potential", "setting": "[2]; pH 8.5, 0.25% Na Oleate", "value": "−10"}, {"measurement": "zeta-potential", "setting": "[2]; pH 8.5, 0.5% Na Oleate", "value": "−26.8"}, {"measurement": "zeta-potential", "setting": "[2]; pH 8.5, 1% Na Oleate", "value": "−30.4"}, {"measurement": "zeta-potential", "setting": "[2]; pH 9.0, 0% Na Oleate", "value": "−26.5"}, {"measurement": "zeta-potential", "setting": "[2]; pH 9.0, 0.25% Na Oleate", "value": "−42.5"}, {"measurement": "zeta-potential", "setting": "[2]; pH 9.0, 0.5% Na Oleate", "value": "−42.1"}, {"measurement": "zeta-potential", "setting": "[2]; pH 9.0, 1% Na Oleate", "value": "−52.9"}, {"measurement": "droplet charge of emulsion", "setting": "[3]; pH of about 9, 1 mM dibasic phosphate", "value": "net negative charge"}, {"measurement": "pH range in which emulsion achieves charge neutrality", "setting": "[3]; titration in 1 mM dibasic phosphate", "value": "7-7.5"}, {"measurement": "solubility at 18 h", "setting": "[4]; Long Chain Triglycerides (oil phase) with egg lecithin, Long Chain Triglycerides, Egg lecithin", "value": "> 362", "unit": "mg/mL"}, {"measurement": "solubility at 18 h", "setting": "[4]; Long Chain Triglycerides (oil phase) with soy lecithin, Long Chain Triglycerides, Soy lecithin", "value": "> 304", "unit": "mg/mL"}, {"measurement": "solubility at 18 h", "setting": "[4]; Long Chain Triglycerides (oil phase), Long Chain Triglycerides, no lecithin", "value": "> 340", "unit": "mg/mL"}, {"measurement": "solubility at 18 h", "setting": "[4]; Medium Chain Triglycerides (oil phase) with egg lecithin, Medium Chain Triglycerides, Egg lecithin", "value": "> 349", "unit": "mg/mL"}, {"measurement": "solubility at 18 h", "setting": "[4]; Medium Chain Triglycerides (oil phase) with soy lecithin, Medium Chain Triglycerides, Soy lecithin", "value": "> 327", "unit": "mg/mL"}, {"measurement": "solubility at 18 h", "setting": "[4]; Medium Chain Triglycerides (oil phase), Medium Chain Triglycerides, no lecithin", "value": "> 341", "unit": "mg/mL"}, {"measurement": "solubility at 18 h", "setting": "[4]; Structured Triglycerides (oil phase) with egg lecithin, Structured Triglycerides, Egg lecithin", "value": "> 339", "unit": "mg/mL"}, {"measurement": "solubility at 18 h", "setting": "[4]; Structured Triglycerides (oil phase) with soy lecithin, Structured Triglycerides, Soy lecithin", "value": "> 317", "unit": "mg/mL"}, {"measurement": "solubility at 18 h", "setting": "[4]; Structured Triglycerides (oil phase), Structured Triglycerides, no lecithin", "value": "> 368", "unit": "mg/mL"}]}]}
